Data published in the supplement of paper PMC10307832.

The cell lines below were run with CC1=C(N=C(N=C1N)[C@H](CC(=O)N)NC[C@@H](C(=O)N)N)C(=O)N[C@@H]([C@H](C2=CN=CN2)OC3C(C(C(C(O3)CO)O)O)OC4C(C(C(C(O4)CO)O)OC(=O)N)O)C(=O)N[C@H](C)[C@H]([C@H](C)C(=O)N[C@@H]([C@@H](C)O)C(=O)NCCC5=NC(=CS5)C6=NC(=CS6)C(=O)NCCC[S+](C)C)O [Bleomycin] + C[C@@H](Oc1cc(-c2cnn(C3CCNCC3)c2)cnc1N)c1c(Cl)ccc(F)c1Cl [Crizotinib] (partner 1 µM) (assay: relative viability (nuclei count vs DMSO), 5 days (fraction); higher = more cells survive). Conditions: first compound 0.01 µM; main component drawn.
Summary of the method: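 Relative viability is defined as nuclei in treated wells over nuclei in vehicle wells. Duplicate plates were run and medians reported. Lung cancer cell lines in 1536-well plates were dosed by pin tool one day after seeding, with one drug or with a fixed anchor-drug dose plus five library-drug doses (not always all listed) in √10 steps, and nuclei were counted after 5 days.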

Compared with LOU-NH91, NCI-H3122 is lower in relative viability: 0.593 for the first, 0.253 for the second.

Going from HOP-62 to HCC-44, the relative viability falls from 0.531 to 0.484.

Going from LU99A to BEN, the relative viability rises from 0.344 to 0.769.

Compared with HARA, HCC-78 is lower in relative viability: 0.938 for the first, 0.31 for the second.

Compared with LCLC-97TM1, NCI-H2009 is higher in relative viability: 0.18 for the first, 0.976 for the second.

Going from A-427 to NCI-H460, the relative viability falls from 0.738 to 0.331.

Going from NCI-H727 to NCI-H1734, the relative viability falls from 0.763 to 0.581.

Compared with NCI-H520, NCI-H2405 is higher in relative viability: 0.531 for the first, 0.695 for the second.

Going from SW 1573 to 201T, the relative viability rises from 0.713 to 0.997.

First: NCI-H1915
Second: HCC-827
The relative viability of the first is lower: 0.661 for the first, 0.872 for the second.

First: LXF-289
Second: NCI-H2347
The relative viability of the first is higher: 0.725 for the first, 0.707 for the second.

First: NCI-H650
Second: CAL-12T
The relative viability of the first is higher: 0.502 for the first, 0.356 for the second.

First: NCI-H1651
Second: EPLC-272H
The relative viability of the first is higher: 0.787 for the first, 0.776 for the second.

NCI-H23 showed a relative viability of 0.249.

Same assay, conditions: first compound 0.03162 µM; main component drawn

First: LOU-NH91
Second: NCI-H3122
The relative viability of the first is higher: 0.537 for the first, 0.271 for the second.

Going from HOP-62 to HCC-44, the relative viability falls from 0.477 to 0.256.

Compared with LU99A, BEN is higher in relative viability: 0.358 for the first, 0.829 for the second.

First: HARA
Second: HCC-78
The relative viability of the first is higher: 0.952 for the first, 0.294 for the second.

Compared with LCLC-97TM1, NCI-H2009 is higher in relative viability: 0.219 for the first, 1.07 for the second.

Compared with A-427, NCI-H460 is lower in relative viability: 0.776 for the first, 0.0828 for the second.

Going from NCI-H727 to NCI-H1734, the relative viability falls from 0.731 to 0.545.

Going from NCI-H520 to NCI-H2405, the relative viability falls from 0.898 to 0.8.

Compared with SW 1573, 201T is higher in relative viability: 0.604 for the first, 0.947 for the second.

First: NCI-H1915
Second: HCC-827
The relative viability of the first is lower: 0.665 for the first, 0.95 for the second.

Going from LXF-289 to NCI-H2347, the relative viability falls from 0.678 to 0.677.

Going from NCI-H650 to CAL-12T, the relative viability falls from 0.718 to 0.405.

First: NCI-H1651
Second: EPLC-272H
The relative viability of the first is lower: 0.772 for the first, 0.88 for the second.

For NCI-H23, the relative viability was 0.231.

Same assay, conditions: first compound 0.1 µM; main component drawn

Compared with LOU-NH91, NCI-H3122 is lower in relative viability: 0.531 for the first, 0.305 for the second.

First: HOP-62
Second: HCC-44
The relative viability of the first is higher: 0.325 for the first, 0.223 for the second.

Going from LU99A to BEN, the relative viability rises from 0.284 to 0.94.

Compared with HARA, HCC-78 is lower in relative viability: 0.974 for the first, 0.297 for the second.

Compared with LCLC-97TM1, NCI-H2009 is higher in relative viability: 0.14 for the first, 0.991 for the second.

Compared with A-427, NCI-H460 is lower in relative viability: 0.67 for the first, 0.0648 for the second.

Compared with NCI-H727, NCI-H1734 is lower in relative viability: 0.634 for the first, 0.554 for the second.

First: NCI-H520
Second: NCI-H2405
The relative viability of the first is higher: 0.735 for the first, 0.713 for the second.

Going from SW 1573 to 201T, the relative viability rises from 0.711 to 0.902.

Compared with NCI-H1915, HCC-827 is higher in relative viability: 0.45 for the first, 0.831 for the second.

Going from LXF-289 to NCI-H2347, the relative viability rises from 0.679 to 0.744.

Going from NCI-H650 to CAL-12T, the relative viability falls from 0.629 to 0.25.

First: NCI-H1651
Second: EPLC-272H
The relative viability of the first is higher: 0.754 for the first, 0.655 for the second.

NCI-H23 showed a relative viability of 0.251.

Same assay, conditions: first compound 0.3162 µM; main component drawn

Going from LOU-NH91 to NCI-H3122, the relative viability falls from 0.39 to 0.214.

Going from HOP-62 to HCC-44, the relative viability rises from 0.144 to 0.152.

First: LU99A
Second: BEN
The relative viability of the first is lower: 0.12 for the first, 0.671 for the second.

Going from HARA to HCC-78, the relative viability falls from 0.54 to 0.229.

Compared with LCLC-97TM1, NCI-H2009 is higher in relative viability: 0.109 for the first, 0.603 for the second.

Compared with A-427, NCI-H460 is lower in relative viability: 0.402 for the first, 0.0162 for the second.

Going from NCI-H727 to NCI-H1734, the relative viability falls from 0.411 to 0.219.

Going from NCI-H520 to NCI-H2405, the relative viability falls from 0.505 to 0.45.

Compared with SW 1573, 201T is higher in relative viability: 0.402 for the first, 0.843 for the second.

Compared with NCI-H1915, HCC-827 is higher in relative viability: 0.337 for the first, 0.635 for the second.

Compared with LXF-289, NCI-H2347 is higher in relative viability: 0.239 for the first, 0.362 for the second.

First: NCI-H650
Second: CAL-12T
The relative viability of the first is higher: 0.237 for the first, 0.15 for the second.

Compared with NCI-H1651, EPLC-272H is lower in relative viability: 0.448 for the first, 0.358 for the second.

For NCI-H23, the relative viability was 0.162.

Same assay, conditions: first compound 1 µM; main component drawn

Going from LOU-NH91 to NCI-H3122, the relative viability falls from 0.331 to 0.253.

Going from HOP-62 to HCC-44, the relative viability rises from 0.106 to 0.138.

First: LU99A
Second: BEN
The relative viability of the first is lower: 0.16 for the first, 0.742 for the second.

First: HARA
Second: HCC-78
The relative viability of the first is higher: 0.36 for the first, 0.267 for the second.

Compared with LCLC-97TM1, NCI-H2009 is higher in relative viability: 0.0966 for the first, 0.459 for the second.

First: A-427
Second: NCI-H460
The relative viability of the first is higher: 0.223 for the first, 0.0149 for the second.

First: NCI-H727
Second: NCI-H1734
The relative viability of the first is higher: 0.489 for the first, 0.198 for the second.

First: NCI-H520
Second: NCI-H2405
The relative viability of the first is higher: 0.4 for the first, 0.372 for the second.

Compared with SW 1573, 201T is higher in relative viability: 0.227 for the first, 0.784 for the second.

Going from NCI-H1915 to HCC-827, the relative viability rises from 0.183 to 0.274.

Going from LXF-289 to NCI-H2347, the relative viability rises from 0.149 to 0.515.

Going from NCI-H650 to CAL-12T, the relative viability falls from 0.303 to 0.192.

First: NCI-H1651
Second: EPLC-272H
The relative viability of the first is higher: 0.358 for the first, 0.152 for the second.
